Earlier results in US6759057B1, “Methods and compositions using liposome-encapsulated non-steroidal anti-inflammatory drugs” (The Liposome Company, Inc., priority 1986, dated 2004).

Test system: rat stomach mucosa
Conditions: rats dosed with Prostaglandin E2

CCCCC[C@H](O)/C=C/[C@H]1[C@H](O)CC(=O)[C@@H]1C/C=C\CCCC(=O)O [Prostaglandin E2]
increase in the major gastric surface protective surfactant: 2-6 fold
